This note sets out measurements from patent publication US6174888A, “2-amino-7-(1-substituted-2-hydroxyethyl)-3,5-dihydropyrrolo[3,2-D]pyrimidin -4-ones” (Novartis AG, priority 1998, dated 2001).

The target in one experiment is T1, Calf spleen PNP (Bos taurus, UniProt P55859).
T1 construct: Calf spleen PNP is used as the enzyme source; from tissue; host or cells: calf spleen
T1 sequence (P55859 1-289): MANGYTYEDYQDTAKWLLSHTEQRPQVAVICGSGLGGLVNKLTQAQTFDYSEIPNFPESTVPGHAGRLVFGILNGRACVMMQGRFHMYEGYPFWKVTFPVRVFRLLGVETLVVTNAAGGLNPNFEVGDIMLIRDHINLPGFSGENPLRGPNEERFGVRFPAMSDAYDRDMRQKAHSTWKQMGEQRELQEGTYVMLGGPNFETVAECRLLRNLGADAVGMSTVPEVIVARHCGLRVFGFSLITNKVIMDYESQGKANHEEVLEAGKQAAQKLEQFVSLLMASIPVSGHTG
Kind of experiment: PNP inhibition in vitro, colorimetric enzymic determination of inorganic phosphate (PNP and xanthine oxidase, substrate inosine). The format is biochemical. As to conditions: 1 mM phosphate concentration. The procedure: PNP inhibition can also be determined in vitro as follows: An enzymic method for the determination of inorganic phosphate (see Chem. Pharm. Bull., 1981, 29:1451-5), based on the principle of forming hydrogen peroxide with purine nucleoside phosphorylase (PNP) and xanthine oxidase, is used to colorimetrically measure the degree of linkage between enzyme and substrate (inosine). Calf spleen PNP is used as the enzyme source. The IC50 values for the compounds studied are determined graphically at two phosphate concentrations (1 and 50 mM) from a plot of percent inhibition versus compound concentration.

The test system of the next experiment is Human CCRF-CEM cells. Nature of the experiment: potentiation of the cell growth inhibitory activity (cytotoxicity) of 2'-deoxyguanosine, CCRF-CEM cell assay. As to conditions: d-Guo 10 μM, increase in cell number between 0 and 72 hours. The format is cell-based. The method, then: The selective suppression of spontaneous T-cell proliferation in vitro is measured by the potentiation of the cell growth inhibitory activity (cytotoxicity) of 2'-deoxyguanosine (d-Guo) by the compounds of the invention, determined as follows: Human CCRF-CEM cells are grown in RPMI-1640 medium. To suspension cultures of these cells, d-Guo at a fixed concentration (10 μM) and the candidate PNP inhibitor at varied concentrations are added and the number of cells are determined in a Coulter counter 24, 48, and 72 hours thereafter. […] This method is similar to that previously used to determine the effectiveness of PNP inhibitors on potentiation of the toxicity of d-Guo. [See D. A. Shewach et al., Cancer Res., 46, 519 (1986); J. C. Sircar et al., Agents and Actions, 21, 253 (1987), also Methods in Pharmacology, D. M. Paten, ed. 1985, pp. 147-162].

For another experiment, the system named is PNP. Nature of the experiment: PNP inhibition in vivo: increased plasma level of inosine in mice. The settings on record: 10 mg/Kg p.o. The procedure: Briefly, mice are treated orally with the PNP inhibitor suspended in fortified cornstarch (3% cornstarch suspension in water with 0.33% Tween 80 and 5% PEG 400) at a final volume of 10 ml/kg. One or more hours after a single oral dose of compound, the mice are bled by cardiac puncture into 25 U/ml heparin to obtain plasma. The samples are analyzed for both inosine and drug levels by a gradient reverse-phase high performance liquid chromatography (HPLC) method (see Anal Chem, 1977, 49:2237-41). Quantitation is performed using an internal standard method with 2',3'-dideoxyinosine (DDI) as the internal standard.

The subject of experiment [1] is collagen II induced arthritis. Nature of the experiment: collagen II induced arthritis in mice model. The format is in vivo, mice (DBA/1LacJ). As to conditions: 20 mg/Kg/day, oral. The method, then: The antiarthritic activity can be determined in the collagen II induced arthritis in mice model. DBA/1LacJ female mice, 6-8 weeks old, are immunized with 100 μg of chicken type II collagen emulsified in Freund's complete adjuvant (FCA) by injecting at the base of the tail on day 0. On day 17 after collagen injection, the immune response to type II collagen is boosted with a subcutaneous injection of 200 μg LPS solubilized in PBS. Paws are examined on days 17, 21, 24, 28, 31, 35, and 42 and scored for the symptoms of arthritis based on criteria such as inflammation, swelling and ankylosis. Compounds are suspended in corn starch vehicle and administered orally to mice once daily beginning on day 1 and continuing through day 42.

A further experiment deals with transplant rejection. Kind of experiment: mouse tail skin transplant rejection model. The format is in vivo, mouse (C57BL/10-SnJ and B10.BR/SgSnJ). From the text: Protection against transplant rejection can be determined in a mouse tail skin transplantation procedure.
Mice are anesthetized with tribromoethanol i.p. injection according to the method of Papaioannou and Fox (Lab. Animal Science 1993;43:189-92). The mouse tail skin transplant rejection model is a modification of that described by Baily and Usama, (Transpl. Bull. 1960;7:424-5). Four skin grafts per mouse are exchanged between strains [C57BL/10-SnJ (H-2K^b) and B10.BR/SgSnJ (H-2K^k)] at surgery (d0). Fitted skin grafts are made with a scalpel, and tail graft sites are protected with tubing for 2 days following surgery. Mouse tails are evaluated at day 7 for missing grafts. Only those graft sites that have patent grafts at day 7 are evaluated at later scoring intervals. Grafts are scored numerically for signs of rejection at ~weekly scoring intervals starting day 14. Dose-group mean graft scores are compared statistically.

For orientation: IC50 means the concentration that inhibits the measured activity by half.

Take `Nc1nc2c([C@@H](CO)c3ccccc3)c[nH]c2c(=O)[nH]1` [3(f), 2-Amino-7-(2(S)-hydroxy-1-phenylethyl)-3,5-dihydro-4H-pyrrolo[3,2-d]-pyrimidin-4-one]: the IC50 at Calf spleen PNP was ~10 nM; in the experiment on Human CCRF-CEM cells, ~100 nM. In addition, the “increase in the plasma level of inosine” value with PNP is “significant increase”.
As for `Nc1nc2c([C@@H](CO)c3ccccc3F)c[nH]c2c(=O)[nH]1` [Example 1, 2-amino-7-[1-(2-flourophenyl)-2(R)-hydroxyethyl]-3,5-dihydro-4H-pyrrolo[3,2-d]pyrimidin-4-one], the IC50 on Calf spleen PNP is ~10 nM; in the experiment on Human CCRF-CEM cells, ~75 nM. Besides, in the experiment with PNP, the “increase in the plasma level of inosine” value is “significant increase”. Further, the antiarthritic activity result in experiment [1] is “effective”. In addition, the “protection against transplant rejection” value in the experiment with transplant rejection (50 mg/Kg/day, mouse) is on record as “effective in protecting against transplant rejection”. In addition, the “effect of combination with cyclosporin in the transplant rejection model” value with transplant rejection (combination of a compound of the invention, e.g. of example 1, and cyclosporin) is “superior to either cyclosporin or the PNP inhibitor alone”.
